{"source": "patent US6586410B1", "about": "“Lipid-nucleic acid particles prepared via a hydrophobic lipid-nucleic acid complex intermediate and use for gene transfer” (Inex Pharmaceuticals Corporation, priority 1995, dated 2003)", "key": {"[1]": {"experiment": "Plasmid encapsulation (protection from external medium) by anion exchange chromatography on DEAE Sepharose CL-6B", "assay_type": "physicochemical", "conditions": "for cationic lipid concentration required for optimal plasmid encapsulation: detergent dialysis", "method": "The extent of encapsulation or protection of the plasmid from the external medium was assessed by anion exchange chromatography as follows: a 50 μl aliquot of each sample was eluted on a DEAE Sepharose CL-6B column and the fractions were assessed for both ^3H-plasmid and ^14C-lipid by scintillation counting. Any exposed negative charges, such as those present on DNA molecules will bind-to the anion exchange column and will not elute with the ^14C-lipid. DNA which has its negative charge, “protected” or non-exposed will not bind to the anion exchange resin and will elute with the ^14C-lipid. Alternatively, plasmid DNA was measured using the indicator dye, PicoGreen®."}, "[2]": {"test_system": "plasmid DNA", "experiment": "Bligh and Dyer extraction: DNA partitioning between aqueous and organic phase", "assay_type": "physicochemical", "conditions": "for amount of lipid for complete partitioning of the DNA into the organic phase: preformed liposomes; for DNA partitioning into the organic phase versus charge ratio: polyvalent lipids compared with monovalent cationic lipids; for DNA partitioning: nonlipid cations, charge ratios up to and in excess of 4", "method": "[…] This mixture of solvents and water is equivalent to that used in the preparation of a Bligh and Dyer monophase (Bligh and Dyer, Can. J. Biochem. Physiol. 37:91-97 (1959)). Typically, DNA was added to achieve a final concentration of […] in solution while lipid was added at various concentrations. Trace quantities of 3H-plasmid DNA were added such that 2000 to 4000 dpm were present per 10 g unlabelled DNA. The reaction mixtures were incubated at room temperature for 30 min in a total volume of 1 mL. Subsequently the Bligh and Dyer monophase was partitioned into a two phase system by the addition of water and chloroform (250 L each). The samples were mixed by vortexing and the separation of the lower organic and upper aqueous phases was facilitated by centrifugation at 2000 rpm for 5 min at room temperature. The aqueous phase was removed and retained for scintillation counting. The solvent phase was dried using a stream of nitrogen gas, and the resulting film was resuspended in SOLVABLE solubilizing agent (Dupont NEN, Boston, Mass., USA) and incubated at 50° C. for 1 hour. […] PICOFLUOR scintillant (Canberra Packard, Meriden, Conn., USA) was added to all samples and the radioactivity (3H-DNA) was measured using a Packard TR 1900 Scintillation Counter (Canberra Packard).\nAssays evaluating the stability of charge-neutralized, lipid-nucleic acid complexes were done in the presence of varying concentration of NaCl and OGP. Briefly, cationic lipid-nucleic acid complexes were prepared under conditions where 100% of the plasmid was expected to be recovered in the organic phase. NaCl or OGP was then added to the monophase system and incubations carried out at room temperature for 15 min. Bligh and Dyer extractions were performed as described above. The binding of calcium, L-lysine, and poly-L-lysine to the plasmid was evaluated using a modification of the above procedure. These nonlipid cationic materials were dissolved at various concentrations in sterile distilled water and incubated with the plasmid ([…] final concentration in water) at room temperature for 30 min in a final volume of 250 L. Reaction volumes were adjusted to 1 mL with chloroform:methanol (1:2.1) to produce a monophase. Bligh and Dyer extractions were then performed as described."}, "[3]": {"test_system": "plasmid DNA", "experiment": "Agarose gel electrophoresis: DNA mobility", "assay_type": "physicochemical", "method": "Complexes involving plasmid and poly-L-lysine were formed at a nucleic acid concentration of 10 µg/mL and a 1:1 charge ratio in the presence of 100 mM OGP. Complexes involving the cationic lipid DODAC and plasmid were formed at a plasmid concentration of 10 µg/mL and increasing concentrations of DODAC (10 to 320 nmoles/mL). The mixtures were incubated at room temperature for 30 min prior to loading onto a 0.8% agarose gel. Electrophoresis was carried out in TBE buffer according to standard techniques (Sambrook, et al., Molecular Cloning: A Laboratory Manual, Second Edition, Cold Spring Harbor, N.Y. (1989)). Nucleic acids were visualized after staining the gel with ethidium bromide ([…], 20 min) by photography with UV transillumination."}, "[4]": {"test_system": "plasmid DNA", "experiment": "TO-PRO-1 dye intercalation assay (DNA condensation)", "assay_type": "physicochemical", "conditions": "Bligh and Dyer monophase; 1 μM TO-PRO-1; 533 nm", "method": "The fluorochrome TO-PRO-1 was used to evaluate the state of condensation of the plasmid in the charge-neutralized lipid-nucleic acid complex. TO-PRO-1 was used in this study due to its stable intercalation into the plasmid as well as the high sensitivity in the fluorescence detection compared with the more common intercalator ethidium bromide (see, Hirons, et al., Cytometry 15:129-140 (1994)). Plasmid was dissolved in either the Bligh and Dyer monophase or in 100 mM OGP. Poly-L-lysine or DODAC were each added to 10 g plasmid at a 1:1 charge ratio.\nEvaluation of the hydrophobic, charge-neutralized lipid-nucleic acid complexes was carried out by assessing the ability of a small fluorescent probe to bind to the nucleic acid in the complex. […] TO-PRO-1 was then added to a final concentration of 1 μM and fluorescence was measured at 533 nm (probe excitation at 509 nm). […] However, when plasmid DNA was added (10 μg/mL) there was a >600 fold increase in fluorescence at 533 nm. […]\nThe fluorochrome (TO-PRO-1) was used to evaluate the state of condensation of the DNA in the lipid-nucleic acid particle. […] To measure fluorescence, spectrofluorometric measurements were performed using a Luminescence Spectrometer 50B (Perkin Elmer Ltd., Buckinghamshire, England) with an excitation wavelength of 509 nm and an emission wavelength of 533 nm. […]"}, "[5]": {"test_system": "plasmid DNA", "conditions": "DNA condensed by addition of polylysine (Reimer et al., 1995); cited from earlier work"}}}
{"compound": "1-O-(2′-(ω-methoxypolyethyleneglycol)succinoyl)-2-N-myristoyl-sphingosine [PEG-C14]", "values": [{"measurement": "PEG-C14 concentration giving best entrapment", "setting": "[1]; 7.5% DODAC and DOPE, dialysis method", "result": 10, "unit": "mol %"}]}
{"compound": "CCCCCCCCCCCCCCOCC(C[N+](C)(C)CCO)OCCCCCCCCCCCCCC.[Br-]", "note": "(stereo not drawn) [DMRIE, N-(1,2-dimyristyloxyprop-3-yl)-N,N-dimethyl-N-hydroxyethyl ammonium bromide]", "values": [{"measurement": "cationic lipid concentration required for optimal plasmid encapsulation", "setting": "[1]", "result": 8, "unit": "%"}]}
{"compound": "CCCCCCCC/C=C\\CCCCCCCC[N+](C)(C)CCCCCCCC/C=C\\CCCCCCCC.[Cl-]", "note": "[DODAC, N,N-dioleyl-N,N-dimethylammonium chloride]", "values": [{"measurement": "DNA partitioned into the organic phase", "setting": "[2]; 10 μg DNA, 40 nmoles DODAC, OGP up to 20 mM", "result": "greater than 99%"}, {"measurement": "cationic lipid concentration required for optimal plasmid encapsulation", "setting": "[1]", "result": 8, "unit": "%"}, {"measurement": "DNA mobility in agarose gel", "setting": "[3]; addition of 320 nmoles of DODAC", "result": "decrease in DNA migrating into the gel"}]}
{"compound": "CCCCCCCCCCCCCCCCCCN(CCCCCCCCCCCCCCCCCC)C(=O)CNC(=O)C(CCCNCCCN)NCCCN", "note": "(stereo not drawn) [DOGS]", "values": [{"measurement": "amount of lipid for complete partitioning of the DNA into the organic phase", "setting": "[2]; 10 μg DNA", "result": "approximately 10 nmoles"}, {"measurement": "DNA partitioning into the organic phase versus charge ratio", "setting": "[2]", "result": "a slightly greater charge ratio was required"}]}
{"compound": "CCCCCCCC/C=C\\CCCCCCCCOCC(C[N+](C)(C)CCNC(=O)C(CCCNCCCN)NCCCN)OCCCCCCCC/C=C\\CCCCCCCC.O=C([O-])C(F)(F)F", "note": "(stereo not drawn) [DOSPA, N-(-(2,3-dioleyloxy)propyl)-N-(2-(sperminecarboxamido)ethyl)-N,N-dimethylammonium trifluoroacetate]", "values": [{"measurement": "amount of lipid for complete partitioning of the DNA into the organic phase", "setting": "[2]; 10 μg DNA", "result": "approximately 10 nmoles"}, {"measurement": "stability of complex in presence of NaCl", "setting": "[2]; Na+ in a 300-fold molar excess", "result": "did not cause partitioning"}, {"measurement": "DNA partitioning into the organic phase versus charge ratio", "setting": "[2]", "result": "a slightly greater charge ratio was required"}]}
{"compound": "CCCCCCCC/C=C\\CCCCCCCCOCC(C[N+](C)(C)C)OCCCCCCCC/C=C\\CCCCCCCC.[Cl-]", "note": "(stereo not drawn) [DOTMA, N-(1-(2,3-dioleyloxy)propyl)-N,N,N-trimethylammonium chloride]", "values": [{"measurement": "cationic lipid concentration required for optimal plasmid encapsulation", "setting": "[1]", "result": 6.5, "unit": "%"}]}
{"compound": "CCCCCCCCCCCCCCCCCC[N+](C)(C)CCCCCCCCCCCCCCCCCC.[Cl-]", "note": "[DSDAC]", "values": [{"measurement": "cationic lipid concentration required for optimal plasmid encapsulation", "setting": "[1]", "result": 6.5, "unit": "%"}]}
{"compound": "[Ca+2].[Cl-].[Cl-]", "note": "[calcium, calcium chloride]", "values": [{"measurement": "DNA partitioning", "setting": "[2]", "result": "majority of the DNA was invariably recovered in the aqueous phase"}]}
{"compound": "NCCCC[C@H](N)C(=O)O", "note": "[lysine, L-lysine]", "values": [{"measurement": "DNA partitioning", "setting": "[2]", "result": "majority of the DNA was invariably recovered in the aqueous phase"}]}
{"compound": "poly L-lysine hydrobromide [poly-L-lysine]", "values": [{"measurement": "DNA partitioning", "setting": "[2]", "result": "majority of the DNA was invariably recovered in the aqueous phase"}, {"measurement": "DNA mobility in agarose gel", "setting": "[3]; 1:1 charge ratio, 100 mM OGP", "result": "significantly reduced mobility"}, {"measurement": "TO-PRO-1 fluorescence / binding to DNA", "setting": "[4]", "result": "no fluorescence was observed"}, {"measurement": "condensation index", "setting": "[5]", "result": "≈ 1.0"}]}
